row,Compound,melting point [°C]
1,Cc1nc(-c2ccccc2N)[nH]c1-c1cccnc1,221 to 222
2,COC(=O)c1ccc(CNC(=O)C2Cc3ccccc3N2S(=O)(=O)c2ccc(-c3cccc(C(F)(F)F)c3)cc2)c(Cl)c1 (configuration not stated),78 to 87
3,CCOC(=O)Nc1nc2cc(C(O)c3ccccc3)ccc2[nH]1 (configuration not stated),> 315
4,Nc1c(-c2csc(-c3ccncc3)n2)c(=O)[nH]c2ccccc12,> 250
5,COc1cc2c(Cl)c(C#N)cnc2cc1NC(C)=O,230 to 235
6,CC(C)CCSC1=C(O)CC(C)(C)CC1=O,59 to 61
7,CCOC(CNc1nncs1)OCC,108 to 112
8,O=C(O)c1ccccc1C(=O)NCCC(Oc1c(Br)cc(-c2ccc(-c3c(Cc4ccccc4)sc4ccccc34)cc2)cc1Br)C(=O)O (configuration not stated),130 to 132
9,O=C(O)c1ccccc1N1CCN(CC(O)COc2ccc(O)cc2)CC1 (configuration not stated),235 to 237
10,CCN(CC)CCNC(=O)c1c2cc(I)ccc2nc2ccc(I)cc12,209 to 211
11,CCc1ccc(SCCC(=O)O)cc1,59 to 60
12,COC(=O)C1(C)CCc2c(C)c(O)c(C)c(C)c2O1 (configuration not stated),132 to 135
13,CCCCCCCC(=O)Nc1ccc2c(C(F)(F)F)cc(=O)oc2c1,137
14,Cc1sc(C(N)=O)c2c1-c1c(cnn1CC(F)(F)F)CC2,144 to 145
15,CCCCCCCCCCCCNC(=O)c1cc(-c2ccc(OC)cc2)c(OCC(=O)O)c(-c2cccc(Cl)c2)c1,114 to 117
16,O=S(=O)(Cl)c1ccccc1Cn1cncn1,180 to 195
17,CCC(O)(CC)c1ccc(-c2cccc(OCc3ccc(CO)c(CO)c3)c2C)cc1,117 to 118
18,CS(=O)(=O)NC(=O)c1ccc(OCCn2ccnc2)cc1,198 to 199
19,CCCCOCCOc1ccc(-c2ccc(N3CCC4(C3)OCCO4)c(C=C(C)C(=O)O)c2)cc1,130 to 132
20,c1ccc(Cn2ccnc2CC2COc3ccccc3O2)cc1 (configuration not stated),105 to 107
21,CSc1nc(-c2ccc(S(C)(=O)=O)cc2)n(-c2ccc(C)cc2)c(=O)c1C#N,242 to 244
22,CC(=O)c1sc(-c2ccc(-c3ccccc3)cc2)nc1C,124 to 125
23,C=CCN(C(=O)c1ccco1)c1c(C)cccc1C,68 to 69
24,CCOC(=O)c1ccc(C(F)(F)F)c(N)c1,38 to 39

row,Compound,melting point [°C]
1,ICCOc1ccc(C2=C(c3ccccc3)CCCc3ccccc32)cc1,154 to 156
2,Nc1cc(S(=O)(=O)C(F)(F)F)cc(Cl)c1N,143 to 145
3,c1ccc(-c2nc(SCCOCCSc3nc(-c4ccccc4)c(-c4ccccc4)[nH]3)[nH]c2-c2ccccc2)cc1,232 to 234
4,CC(C)c1ccc(C(=O)C(c2ccccc2)C2CCCC2)c(C(C)C)c1OS(N)(=O)=O (configuration not stated),142 to 143
5,NC1CCc2ccccc2NC1=O (configuration not stated),161 to 162
6,CC(C)(C)Cc1ccc(C(=O)c2ccccc2C(=O)O)cc1,154
7,CC(C)(O)CC(N)C1(c2ccc(Cl)cc2)CCC1 (configuration not stated),60 to 62
8,CC1(c2ccc(OCc3ccccc3)c(C=O)c2)OCCO1,78 to 80
9,O=C(Nc1cccc(S(=O)(=O)NCc2ccccn2)c1)c1cnn2c(C(F)F)cc(-c3ccc(C(F)(F)F)cc3)nc12,208
10,O=C(c1ccc(Cl)cc1)c1cnc2ccc(Cl)cc2c1Cl,170
11,CCCc1nc2c(N)nc3ccccc3c2s1,140 to 142
12,OCC1(CO)COC2(CCCCC2)N1,117 to 119
13,CC1CN(c2ccc(Nc3cc(Br)cn(C)c3=O)nc2)C1,135 to 136
14,CCOC(=O)c1[nH]cc2c1NC1=C(C(=O)CCC1)C2c1ccc(Sc2nc3cccnc3[nH]2)o1 (configuration not stated),190 to 202
15,Cn1cncc1C(O)(c1ccc([N+](=O)[O-])cc1)c1ccc2c(c1)c(-c1cccc(Cl)c1)cc(=O)n2C (configuration not stated),230
16,CC(=O)Nc1c(C(=O)c2ccc(Cl)cc2)[nH]c2cc(Cl)ccc12,175 to 176
17,NS(=O)(=O)c1ccc(CCC(=O)O)cc1,97 to 99
18,NC(=NO)C1CCc2ccccc2CC1,219
19,CC(C)C(=O)C(=Cc1cc(O)c(O)c([N+](=O)[O-])c1)c1ccccc1,151 to 156
20,O=C(NC1CC1)c1cccc(-c2ccc3c(c2)N(c2ccc(Cl)cc2Cl)CC3)c1,215 to 218
21,O=C(N[C@H](Cc1ccc(C(F)(F)F)cc1)[C@@H](O)c1ccc(F)cc1)c1ccc(F)cc1 (racemic),202 to 203
22,CONc1nc(C#Cc2ccccc2)nc2c1ncn2[C@@H]1O[C@H](CO)[C@@H](O)[C@H]1O,175 to 177
23,Cc1c(C)c2c(c(C)c1O)CCC(C)(C(=O)NN(C)C)O2 (configuration not stated),145 to 146
24,Cn1nc(O)c(Cl)c1Cl,212 to 216

row,Compound,melting point [°C]
1,CCCOc1ccc(S(=O)(=O)N2CCOCC2)cc1-c1nc2c([nH]1)c1nncn1c(=O)n2CCC,169
2,Cc1cn(C(C)C(=O)O)nc1-c1ccccc1 (configuration not stated),151 to 162
3,C=C(C)C(=O)N[C@@H](CCC(=O)O)C(=O)O,128 to 130
4,COC(=O)CN1CCc2[nH]c(=O)n3nc(-c4ccccc4F)nc3c2C1,265 to 266
5,O=C(O)C1c2ccccc2COc2ccccc21 (configuration not stated),200 to 201
6,CCOc1nn(-c2ccc(C(F)(F)F)cn2)cc1CCCOc1cc(CC(=O)O)cc(OC)c1,125 to 126
7,C#CCOCCOC(=O)COc1ccc(Cl)c2cccnc12,53
8,CC(C)(Cl)C(CCN1C(=O)c2ccccc2C1=O)N=O (configuration not stated),140 to 141
9,COC(=O)c1cc(CCl)ccc1OCc1nc(-c2ccco2)oc1C,107 to 108
10,N#CC(C(=O)c1ccc(Cl)cc1)c1ccncc1 (configuration not stated),225 to 235
11,COc1ccccc1N1CCN(CC2(C)N=C(c3cccnc3)NC2=O)CC1 (configuration not stated),159 to 162
12,O=C1CCC(N2Cc3c(OCc4ccc(CN5CCN(C(=O)C(F)(F)F)CC5)cc4)cccc3C2=O)C(=O)N1 (configuration not stated),125 to 127
13,Cc1cc2[nH]c(=O)c(=O)[nH]c2cc1Cl,> 330
14,CCCCN(C)C(=O)c1ccc(S(=O)(=O)CCCn2c(CCC)nc3c(N)nc(C)c(C)c32)cc1,127 to 129
15,O=C(O)C1CCCN1C(=O)c1ccc(-c2ccccc2)cc1 (configuration not stated),160
16,O=Cc1nn(-c2ccccc2)c2c1CCCC2,60
17,CC(C)(C)c1nc(C=CC(COc2ccccc2)=NO)nc(C(C)(C)C)c1O,130 to 135
18,Cc1ccc(CS(=O)c2nc3cc4c(cc3[nH]2)CCC4)nc1 (configuration not stated),190 to 191
19,O=c1ccc2ccc3ccc(Br)cc3c(=O)c2[nH]1,268 to 269
20,CC(=O)Nc1cccc2c1C(=O)OC2=O,180 to 183
21,CCCc1nc2c(C)cc(C)nc2n1Cc1ccc2oc(-c3ccccc3C(=O)O)nc2c1,150 to 160
22,COc1ccc(F)cc1C(C)(C)CC(O)(C(=O)Nc1ccccc1)C(F)(F)F (configuration not stated),83 to 85
23,O=C(CCNC(=O)[C@H](Cc1ccccc1)OP(=O)(O)CCCCc1ccccc1)OCc1ccccc1,64 to 70
24,Cc1ccc2[nH]c3c(c2c1)CC(C)n1c-3nc2c(c1=O)CCCC2 (configuration not stated),220

# — a melting point compilation (Tetko et al.; mined from patent text by program, amines drawn as free bases though some values may be those of a salt)
